Laboratory results as given in patent publication US12679878B2, “CRF2 receptor agonists and their use in therapy” (SANOFI, priority 2020, dated 2026).
Read-outs that look alike come from different tables or passages of the source. Starred links: 1 amine or outer side, 2 acyl side, 3 side chain; linkers in the order of their positions; H or OH if unused. Non-standard residues stand in square brackets, D forms with d. Residues, ends and D or L forms follow the SMILES beside them. Groups on a side chain read outwards from the residue. *: point of attachment. C18 diacid = O=C(O)CCCCCCCCCCCCCCCCC(=O)*; γGlu = O=C(O)[C@H](CCC(=O)[*:2])N[*:1]; Palmitoyl = CCCCCCCCCCCCCCCC(=O)*; AEEA = NCCOCCOCC(=O)O; Aib = CC(C)(N)C(=O)O

Tests used:
Type in all cases: cell-based
[1] = biological target: T1, human CRF2α receptor (Homo sapiens, UniProt Q13324); assay: cAMP agonism at human CRF2 α receptor in TeloHEAC cells (Example 7); conditions: cAMP HTRF, TeloHEAC cells stably expressing human CRF2 α
T1 construct: expressed in transfected cells; host or cells: TeloHEAC
T1 sequence (Q13324 1-411): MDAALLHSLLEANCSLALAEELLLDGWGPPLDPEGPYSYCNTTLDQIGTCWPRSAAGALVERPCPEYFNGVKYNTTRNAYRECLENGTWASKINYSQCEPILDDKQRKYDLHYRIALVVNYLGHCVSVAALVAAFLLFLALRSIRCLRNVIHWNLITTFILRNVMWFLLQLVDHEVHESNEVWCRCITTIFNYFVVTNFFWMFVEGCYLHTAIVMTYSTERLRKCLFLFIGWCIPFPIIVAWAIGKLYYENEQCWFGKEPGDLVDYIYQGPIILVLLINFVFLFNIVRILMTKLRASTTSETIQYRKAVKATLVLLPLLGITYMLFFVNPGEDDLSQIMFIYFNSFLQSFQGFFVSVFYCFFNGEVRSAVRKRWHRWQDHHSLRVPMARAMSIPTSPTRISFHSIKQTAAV
How it was run: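 HTRF ratio 665/620 nm, read 1 h after lysis reagents, reports cAMP. Cells: thawed stocks, 2000/well, 30 min RT with compound in HBSS, 20 mM HEPES, 0 or 0.1% HSA, 2 mM IBMX. Activity normalised to UCN2 1000 nM = 100%; EC50 from half-maximal activation.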

[2] = system: rat CRF2R α receptor; assay: cAMP agonism at rat CRF2R α receptor in A7R5 rat aortic smooth muscle cells (Example 8); conditions: cAMP HTRF, A7R5 rat aortic smooth muscle cell line, 0% HSA
How it was run: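 Thawed cryopreserved A7R5 cells in HBSS/20 mM HEPES (0 or 0.1% HSA) with 2 mM IBMX, 2000 cells/well, were exposed to compound for 30 min at room temperature. cAMP was read by HTRF (665/620 nm ratio) after 1 h with lysis reagents. Activity was normalised to 1000 nM urocortin 2 as 100%, and EC50 was taken as the concentration giving 50% of maximal activation.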

[3] = biological target: T2, CRF1R receptor (Homo sapiens, UniProt P34998); assay: cAMP activity at anti-target CRF1R, CRF1R-overexpression CHO cell line (Example 9); conditions: for EC50: 0% HSA
T2 construct: host or cells: CHO-K1 clone 2
T2 sequence (P34998 24-415): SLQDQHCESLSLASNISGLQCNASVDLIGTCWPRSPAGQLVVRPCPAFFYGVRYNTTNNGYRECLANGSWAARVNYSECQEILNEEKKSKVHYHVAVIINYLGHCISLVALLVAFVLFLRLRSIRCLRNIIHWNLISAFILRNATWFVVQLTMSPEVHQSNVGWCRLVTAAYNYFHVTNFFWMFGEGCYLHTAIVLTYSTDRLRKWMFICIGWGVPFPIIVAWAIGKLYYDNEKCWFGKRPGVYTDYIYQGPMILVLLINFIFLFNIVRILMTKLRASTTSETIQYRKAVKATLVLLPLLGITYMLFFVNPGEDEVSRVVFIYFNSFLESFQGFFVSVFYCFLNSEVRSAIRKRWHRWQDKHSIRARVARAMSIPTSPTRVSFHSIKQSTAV
How it was run: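 cAMP accumulation was read by HTRF after 30 min at room temperature of compound treatment. Cells were cryopreserved CHO cells overexpressing CRF1R, plated at 2000/well in IBMX (2 mM)-containing HBSS/HEPES buffer with 0 or 0.1% HSA. Activity was normalized to 1000 nM UCN2 as 100%.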

[4] = 0% HSA, read-out: EC50 [nM], 0% HSA
[5] = CRF1R-overexpression CHO cell line
[6] = CRF1R-overexpression CHO cell line, read-out: Emax (%)

Compound | EC50 [1, 4] | EC50 [2] | EC50 [3, 5] | Emax [3, 6] | EC50 ([1]; 0.1% HSA, read-out: EC50 [nM], 0.1% HSA) | Emax ([3]; CHO)
CC[C@H](C)[C@H](NC(=O)[C@H](CCC(N)=O)NC(=O)[C@H](CCC(=O)O)NC(=O)[C@H](CC(C)C)NC(=O)[C@H](CC(C)C)NC(=O)[C@H](CCC(N)=O)NC(=O)[C@H](CCCCN)NC(=O)[C@H](CC(N)=O)NC(=O)[C@H](CCCCN)NC(=O)[C@H](CCC(=O)O)NC(=O)[C@H](C)NC(=O)[C@H](CCC(N)=O)NC(=O)[C@H](CCC(N)=O)NC(=O)[C@H](CCCNC(=N)N)NC(=O)[C@H](CCC(=O)O)NC(=O)[C@H](CCCCN)NC(=O)[C@H](CCCCN)NC(=O)[C@H](CCC(N)=O)NC(=O)[C@H](CCCCN)NC(=O)[C@H](CCC(N)=O)NC(=O)[C@H](CCC(N)=O)NC(=O)[C@H](CCCCN)NC(=O)[C@H](Cc1ccccc1)NC(=O)[C@H](CC(C)C)NC(=O)[C@@H](NC(=O)[C@H](CCC(N)=O)NC(=O)[C@H](CCCCNC(=O)COCCOCCNC(=O)COCCOCCNC(=O)CC[C@H](NC(=O)CCCCCCCCCCCCCCCCC(=O)O)C(=O)O)NC(=O)[C@@H](NC(=O)[C@H](CCCCN)NC(=O)[C@@H](NC(=O)[C@@H]1CCCN1C(=O)[C@@H](NC(=O)[C@H](CC(=O)O)NC(=O)[C@H](CC(C)C)NC(=O)[C@H](CO)NC(=O)[C@H](CC(C)C)NC(=O)[C@@H](NC(=O)[C@@H](N)Cc1ccccc1)[C@@H](C)O)C(C)C)[C@@H](C)O)[C@@H](C)CC)[C@@H](C)CC)C(N)=O [compound 13] (H-FTLSLDVPTKIK([AEEA-AEEA-γGlu-C18 diacid])QILFKQQKQKKERQQAEKNKQLLEQI-NH2; N-terminus assumed) | 0.98 nM | 2.5 nM | – | – | 64.1 nM | 4.3%
CCCCCCCCCCCCCCCC(=O)N[C@@H](CCC(=O)NCCCC[C@H](NC(=O)[C@@H](NC(=O)[C@H](CCCCN)NC(=O)[C@@H](NC(=O)[C@@H]1CCCN1C(=O)[C@@H](NC(=O)[C@H](CC(=O)O)NC(=O)[C@H](CC(C)C)NC(=O)[C@H](CO)NC(=O)[C@H](CC(C)C)NC(=O)[C@@H](NC(=O)[C@@H](N)Cc1ccccc1)[C@@H](C)O)C(C)C)[C@@H](C)O)[C@@H](C)CC)C(=O)N[C@@H](CCC(N)=O)C(=O)N[C@@H](CCCCN)C(=O)N[C@@H](CC(C)C)C(=O)N[C@@H](Cc1ccccc1)C(=O)N[C@@H](CCCCN)C(=O)N[C@@H](CCC(N)=O)C(=O)N[C@@H](C)C(=O)N[C@@H](CCCCN)C(=O)N[C@@H](CCC(N)=O)C(=O)N[C@@H](CCCCN)C(=O)N[C@@H](CCCCN)C(=O)N[C@@H](CCC(N)=O)C(=O)N[C@@H](CCCNC(=N)N)C(=O)N[C@@H](CCC(N)=O)C(=O)N[C@@H](CCCCN)C(=O)N[C@@H](C)C(=O)N[C@@H](CCCCN)C(=O)N[C@H](C(=O)N[C@@H](CC(N)=O)C(=O)N[C@@H](C)C(=O)N[C@@H](CCC(N)=O)C(=O)N[C@H](C(=O)N[C@@H](CC(C)C)C(=O)N[C@@H](C)C(=O)N[C@@H](CCCNC(=N)N)C(=O)N[C@H](C(N)=O)C(C)C)[C@@H](C)CC)[C@@H](C)O)C(=O)O [compound 15] (H-FTLSLDVPTKIK([γGlu-Palmitoyl])QKLFKQAKQKKQRQKAKTNAQILARV-NH2; N-terminus assumed) | 0.88 nM | 1.38 nM | > 1000 nM | 7.75% | – | –
CC[C@H](C)[C@H](NC(C)=O)C(=O)N[C@H](C(=O)N[C@@H](CC(C)C)C(=O)N[C@@H](CO)C(=O)N[C@@H](CC(C)C)C(=O)N[C@@H](CC(=O)O)C(=O)N[C@@H](C(=O)N1CCC[C@H]1C(=O)N[C@H](C(=O)NCC(=O)N[C@@H](CC(C)C)C(=O)N[C@@H](CCCCNC(=O)COCCOCCNC(=O)COCCOCCNC(=O)CC[C@H](NC(=O)CCCCCCCCCCCCCCCCC(=O)O)C(=O)O)C(=O)N[C@@H](CCC(N)=O)C(=O)N[C@H](C(=O)N[C@@H](CC(C)C)C(=O)N[C@@H](CC(C)C)C(=O)N[C@@H](CCC(=O)O)C(=O)N[C@@H](CCC(N)=O)C(=O)N[C@@H](CCC(=O)O)C(=O)N[C@@H](CCCNC(=N)N)C(=O)N[C@@H](CCC(N)=O)C(=O)N[C@@H](CCCCN)C(=O)NC(C)(C)C(=O)N[C@@H](CCC(N)=O)C(=O)N[C@@H](CCCNC(=N)N)C(=O)N[C@@H](CCC(=O)O)C(=O)N[C@@H](CCC(N)=O)C(=O)N[C@@H](C)C(=O)N[C@@H](CCC(=O)O)C(=O)N[C@@H](CCCCN)C(=O)N[C@@H](CC(N)=O)C(=O)N[C@@H](CCC(=O)O)C(=O)N[C@@H](CCC(N)=O)C(=O)N[C@H](C(=O)N[C@@H](CC(C)C)C(=O)N[C@@H](CCC(=O)O)C(=O)N[C@@H](CCC(N)=O)C(=O)N[C@H](C(N)=O)C(C)C)[C@@H](C)CC)[C@@H](C)CC)[C@@H](C)CC)C(C)C)C(C)C [compound 167] (Ac-IVLSLD[dV]PIGLK([AEEA-AEEA-γGlu-C18 diacid])QILLEQERQK[Aib]QREQAEKNEQILEQV-NH2) | – | 76.9 nM | – | -0.46% | – | –

Compounds with a lower EC50 [2], results first:

EC50 [1, 4] | EC50 [2] | EC50 [3, 5] | Emax [3, 6] | Compound | EC50 ([1]; 0.1% HSA, read-out: EC50 [nM], 0.1% HSA) | Emax ([3]; CHO)
0.2 nM | 0.11 nM | > 1000 nM | 16% | CCCCCCCCCCCCCCCC(=O)N[C@@H](CCC(=O)NCCCC[C@H](NC(=O)[C@@H](NC(=O)[C@H](CCCCN)NC(=O)[C@@H](NC(=O)[C@@H]1CCCN1C(=O)[C@@H](NC(=O)[C@H](CC(=O)O)NC(=O)[C@H](CC(C)C)NC(=O)[C@H](CO)NC(=O)[C@H](CC(C)C)NC(=O)[C@@H](NC(=O)[C@@H](N)Cc1ccccc1)[C@@H](C)O)C(C)C)[C@@H](C)O)[C@@H](C)CC)C(=O)N[C@@H](CCC(N)=O)C(=O)N[C@@H](CCCCN)C(=O)N[C@@H](CC(C)C)C(=O)N[C@@H](CC(C)C)C(=O)N[C@@H](CCCCN)C(=O)N[C@@H](CCC(N)=O)C(=O)N[C@@H](CCC(=O)O)C(=O)N[C@@H](CCCCN)C(=O)N[C@@H](CCC(N)=O)C(=O)N[C@@H](CCCCN)C(=O)N[C@@H](CCCCN)C(=O)N[C@@H](CCC(N)=O)C(=O)N[C@@H](CCCNC(=N)N)C(=O)N[C@@H](CCC(N)=O)C(=O)N[C@@H](CCCCN)C(=O)N[C@@H](C)C(=O)N[C@@H](CCCCN)C(=O)N[C@H](C(=O)N[C@@H](C)C(=O)N[C@@H](C)C(=O)N[C@@H](CCC(N)=O)C(=O)N[C@H](C(=O)N[C@@H](CC(C)C)C(=O)N[C@@H](C)C(=O)N[C@@H](CCC(N)=O)C(=O)N[C@H](C(N)=O)C(C)C)[C@@H](C)CC)[C@@H](C)O)C(=O)O [compound 8] (H-FTLSLDVPTKIK([γGlu-Palmitoyl])QKLLKQEKQKKQRQKAKTAAQILAQV-NH2; N-terminus assumed) | – | –
0.02 nM | 0.01 nM | > 1000 nM | 12.7% | CCCCCCCCCCCCCCCC(=O)N[C@@H](CCC(=O)NCCCC[C@H](NC(=O)[C@@H](NC(=O)[C@H](CCCCN)NC(=O)[C@@H](NC(=O)[C@@H]1CCCN1C(=O)[C@@H](NC(=O)[C@H](CC(=O)O)NC(=O)[C@H](CC(C)C)NC(=O)[C@H](CO)NC(=O)[C@H](CC(C)C)NC(=O)[C@@H](NC(=O)[C@@H](N)Cc1ccccc1)[C@@H](C)O)C(C)C)[C@@H](C)O)[C@@H](C)CC)C(=O)N[C@@H](CCC(N)=O)C(=O)N[C@@H](CCCCN)C(=O)N[C@@H](CC(C)C)C(=O)N[C@@H](CC(C)C)C(=O)N[C@@H](CCCCN)C(=O)N[C@@H](CCC(N)=O)C(=O)N[C@@H](CCC(=O)O)C(=O)N[C@@H](CCCCN)C(=O)N[C@@H](CCC(N)=O)C(=O)N[C@@H](CCCCN)C(=O)N[C@@H](CCCCN)C(=O)N[C@@H](CCC(N)=O)C(=O)N[C@@H](CCCNC(=N)N)C(=O)N[C@@H](CCC(N)=O)C(=O)N[C@@H](CCCCN)C(=O)N[C@@H](C)C(=O)N[C@@H](CCCCN)C(=O)N[C@H](C(=O)N[C@@H](CC(N)=O)C(=O)N[C@@H](C)C(=O)N[C@@H](CCC(N)=O)C(=O)N[C@H](C(=O)N[C@@H](CC(C)C)C(=O)N[C@@H](C)C(=O)N[C@@H](CCC(N)=O)C(=O)N[C@H](C(N)=O)C(C)C)[C@@H](C)CC)[C@@H](C)O)C(=O)O [compound 11] (H-FTLSLDVPTKIK([γGlu-Palmitoyl])QKLLKQEKQKKQRQKAKTNAQILAQV-NH2) | – | –
